Consider six molecules from patent US20030064426A1, “Reagents and methods for identifying and modulating expression of genes regulated by CDK inhibitors” (priority 2001, published 2003).

The subject of assay [1] is human fibrosarcoma cell line HS 15.T. Briefly: Mitogenic activity assay, 3H-thymidine incorporation. It is filed as cell-based. The conditions noted are these: HS 15.T cells. On the procedure: (§1) To verify the induction of secreted mitogenic and anti-apoptotic factors by p21, conditioned media from IPTG-treated p21-9 cells were tested to investigate whether they would have an effect on cell growth and apoptosis. In these experiments, conditioned media were prepared by plating 10^6 p21-9 cells per 15 cm plate in the presence of DMEM/10% FCS. The next day, IPTG was added to a final concentration of 50 μM, and this media was replaced three days later with DMEM supplemented with 0.5% FCS and 50 μM IPTG. Two days later (days 3-5 of IPTG treatment), this conditioned media was collected and stored at 4° C. up to 15 days before use. Control media were prepared by adding IPTG-free DMEM/0.5% FCS to untreated cells grown to the same density as IPTG-treated cells and collecting the media two days thereafter.
The slow-growing human fibrosarcoma cell line HS 15.T was used to detect mitogenic activity in these conditioned media. For mitogenic activity assays, both types of conditioned media, as well as fresh media and 1:1 mixtures of conditioned media and fresh media were used to test mitogenic activity. In these experiments, the conditioned media were supplemented with 1% or 2% FCS. […] Cells were then collected and their ^3H-thymidine incorporation determined as described by Mosca et al. (1992, Mol. Cell. Biol. 12: 4375-4383).

Assay [2] has as its system induction of luciferase expression by p21 from the NK4 promoter in LuNK4p21 cells. Briefly: Luciferase assay in LuNK4p21 cell line (NK4 promoter-luciferase, IPTG-inducible p21). It is filed as cell-based, human. The conditions noted are these: for induction of luciferase expression by IPTG in the presence of NSAID: 20 hr treatment after 16 hrs with 50 μM IPTG. On the procedure:
To develop a stably transfected cell line with p21-regulated luciferase expression, the NK4 promoter-luciferase construct, described in Example 8 and termed pLuNK4, was introduced into HT1080 p21-9 cells, which carry IPTG-inducible p21, by cotransfection with pBabePuro carrying puromycin N-acetyltransferase as a selectable marker. Transfection was carried out using LIPOFECTAMTNE 2000 (Life Technologies, Inc., Gaithersburg, Md.), using a 10:1 ratio of pLuNK4 and pBabePuro. Stable transfectants were selected using 1 μg/mL puromycin for 5 days.
This assay was performed as follows. Cells were plated at a density of 40,000 cells/well in 12 well plates in 1 mL of media containing penicillin/streptomycin, glutamine and 10% fetal calf serum (FCS). After attachment, cells were treated with 50 μM IPTG or left untreated for different periods of time. Luciferase activity was then measured as described in Example 8 above. An additional aliquot was removed from the cell lysate to measure protein concentration using the Bio-Rad protein assay kit (Bradford assay). Luciferase activity for each sample was normalized to protein content and expressed as luciferase activity/μg protein.
Luciferase assays were performed substantially as described in Example 9. Luciferase activity was measured after 16 hrs of incubation with or without 50 μM IPTG, followed by an additional 20 hr treatment in the presence or in the absence of 20 mM sodium salicylate, 1 mM sulindac, or 10 mM aspirin. […] NSAID concentrations were based on the pharmacologic concentrations of these agents in the serum of patients required for their anti-inflammatory properties (Yin et al., 1998, ibid.).

In assay [3] the test system is NFκB transcriptional activity (pNFkB-Luc) in HT1080 p21-9 cells. Briefly: Transient transfection assay with pNFkB-Luc in HT1080 p21-9 cells. It is filed as cell-based, human. The conditions noted are these: 50 μM IPTG three days; pNFkB-Luc mixed with negative control E1AΔN/C. On the procedure:
Plasmid clones for each promoter construct were tested for p21-regulation by a transient transfection assay. Transient transfection of HT1080 p21-9 cells was carried out by electroporation, essentially as described in the Bio-Rad protocols. For each electroporation, p21-9 cells were grown to confluence in 15 cm plates using DMEM supplemented with 10% FC2 serum and containing penicillin, streptomycin and glutamine.. The cells were then trypsinized, resuspended in Opti-MEM medium (GibcoBRL) and spun down at 1,000 rpm in an IEC HN-SII centrifuge for 10 minutes. Following centrifugation the media were aspirated and the cells were again resuspended in Opti-MEM at a concentration of 18-20 million cells per ml. […] In preliminary experiments, cell survival and attachment after electroporation was determined to be approximately 33%. […] Luciferase activity was measured using a Turner 20/20 luminometer at 52.1% sensitivity with a 5 second delay period and 10-15 second integration time.
To determine if IPTG-inducible p21 expression in HT 1080 p21-9 cells stimulates the transcriptional activity of NFκB, we have used transient transfection assays to investigate the effect of p21 induction on luciferase expression from the plasmid pNFkB-Luc, commercially available from Stratagene. […] The luciferase activity was measured and normalized to protein content in each sample.

Assay [4] has as its system mouse embryo fibroblast line C8. Briefly: Apoptosis assay in serum-starved C8 cells. It is filed as cell-based. On the procedure: as §1
The effect of this conditioned media on apoptosis was also determined. These experiments used a mouse embryo fibroblast line C8, immortalized by E1A. […] Apoptosis was analyzed by plating 3×10^5 C8 cells per 6-cm plate, and replacing the media on the following day with fresh media supplemented with 0.4% serum or with conditioned media (no fresh serum added). DNA content analysis and DAPI staining were carried out after 24 hrs and 48 hrs, and relative cell numbers were measured by methylene blue staining (Perry et al., 1992, Mutat. Res. 276: 189-197) after 48 hrs in low-serum media.

The test system of assay [5] is RNA expression of the endogenous p21-inducible genes in LuNK4p21 cells. The experiment in a line: RT-PCR of endogenous p21-inducible genes in LuNK4p21 cells. The assay is classed as cell-based, human. On the procedure:
To determine whether NFκB-inhibiting NSAID inhibited not only the induction of transcription from the NK4 promoter but also RNA expression of the endogenous p21-inducible genes, LuNK4p21 cells were plated at 125,000 cells per well in 6-well plates and were either untreated or treated with 50 μM IPTG for 48 hrs (the period of time required for maximal stimulation of p21 -inducible genes; Chang et al., 2000, Proc. Natl. Acad. Sci. USA 97: 4291-4296), in the presence or in the absence of sulindac, at 250 μM, 500 μM or 1 mM concentrations. After this incubation, RNA was extracted from the cells using Qiagen RNeasy Mini Kit, and relative RNA levels of several p21-inducible genes were determined by reverse transcription-PCR (RT-PCR), essentially as described by Noonan et al. (1990, Proc. Natl. Acad. Sci. USA 87: 7160-7164), except that β-actin rather than β2-microglobulin was used for cDNA normalization. The PCR cycles were as follows: for the 1st cycle, 3 min for denaturation, 2 min for annealing and 2 min for extension, and the rest of cycles, 30 sec for denaturation; 30 sec for annealing; and 1 min for extension.

The mark [6] stands for this setting: sulindac 250 μM, 500 μM or 1 mM.

`CC(C)S[C@@H]1O[C@H](CO)[C@H](O)[C@H](O)[C@H]1O` [IPTG, isopropyl-β-thiogalactoside]: the “effect of the addition of IPTG to fresh media on 3H-thymidine incorporation” value in assay [1] was “no effect”. Moreover, in assay [2] (50 μM IPTG, absence of NSAID), the “increase of luciferase expression by IPTG” value was 3-4 fold. In assay [2] (LuNK4p21 cell line, about 17 hrs), the “increase in luciferase levels in IPTG-treated cells” value was “approximately 3 fold”. In assay [3], the “induction of pNFkB-Luc luciferase in the presence of IPTG” value is reported as “up to 15 fold”. In addition, in assay [4], the “effect of IPTG by itself on apoptosis” value was “no effect”.

Turning to `CC(=O)Oc1ccccc1C(=O)O` [aspirin], the “induction of luciferase expression by IPTG in the presence of NSAID” value (“induction of luciferase expression” below) in assay [2] (10 mM aspirin) was “completely or almost completely abolished”.

Consider `CC(C)Cc1ccc(C(C)C(=O)O)cc1` (stereo not shown) [ibuprofen], for which the “induction of luciferase expression” value in assay [2] (25 μM) was “no significant difference”.

For the molecule `COc1ccc2c(c1)c(CC(=O)O)c(C)n2C(=O)c1ccc(Cl)cc1` [indomethacin], in assay [2] (25 μM), the “induction of luciferase expression” value is on record as “no significant difference”.

Regarding `O=C([O-])c1ccccc1O.[Na+]` [salicylate, sodium salicylate], the “induction of luciferase expression” value in assay [2] (20 mM sodium salicylate) is “completely or almost completely abolished”.

Consider `CC1=C(CC(=O)O)c2cc(F)ccc2/C1=C\c1ccc([S+](C)[O-])cc1` (stereo not shown) [sulindac], for which the “effects of IPTG on the APP gene (RT-PCR)” value in assay [5] (250 and 500 μM sulindac) is “diminished”. Further, the “gene expression of all the other tested genes (RT-PCR)” value in assay [5] (absence of IPTG, sulindac 250 μM, 500 μM or 1 mM) is listed as “dose-dependent increase”. In addition, the “NK4 gene expression (RT-PCR)” value in assay [5] (absence of IPTG, sulindac 250 μM, 500 μM or 1 mM, 48 hrs) is “very little effect”. Further, the “ability of p21 to induce transcription for most of the tested genes” value in assay [5] (moderate dose of sulindac (250 μM)) is “inhibits”. In assay [5] (only by 250 μM sulindac), the “effects of IPTG on the CTGF gene (RT-PCR)” value is reported as “diminished”, the “effects of IPTG on the Mac2-binding protein (Mac2-BP) gene (RT-PCR)” value is reported as “diminished” and the “effects of IPTG on the p66Shc gene (RT-PCR)” value is on record as “diminished”. For the same molecule, the “NK4 RNA levels (RT-PCR)” value in assay [5] (presence of 50 μM IPTG, sulindac 250 μM, 500 μM or 1 mM, 48 hrs) is reported as “dose-dependent decrease”. Also, in assay [5] (presence of IPTG, highest tested dose of sulindac (1 mM)), the “gene expression of the other tested genes (RT-PCR)” value was “did not decrease”. In addition, in assay [5] (setting [6]), the “IPTG-induced RNA levels of prosaposin (RT-PCR)” value was “None of the tested sulindac concentrations produced a significant decrease” and the “IPTG-induced RNA levels of superoxide dismutase 2 (SOD2) (RT-PCR)” value is reported as “None of the tested sulindac concentrations produced a significant decrease”. Moreover, the “t-TGase RNA (RT-PCR), compared with NK4” value in assay [5] (with and without 50 μM IPTG, sulindac 250 μM, 500 μM or 1 mM, 48 hrs) was “Very similar results”. For the same molecule, the “induction of luciferase expression” value in assay [2] (1 mM sulindac) is given as “completely or almost completely abolished”.
